Results: ChEMBL document CHEMBL5126629, “Paradoxical Increase of Permeability and Lipophilicity with the Increasing Topological Polar Surface Area within a Series of PRMT5 Inhibitors” (J Med Chem, 2022)

Assays:
[1] = Metabolic stability in human liver microsomes assessed as intrinsic clearance measured upto 30 mins in presence of NADPH by LC/MS/MS analysis; format: ADME, Microsome; conditions: read-out: CLH
[2] = molecular target: Protein arginine N-methyltransferase 5 (Homo sapiens, UniProt O14744); assay: Inhibition of PRMT5 methyltransferase activity in human MTAP -/- Calu-6 cells assessed as reduction in SmB SDMA levels measured after 2 days by HTRF based assay; format: cell-based
[3] = Lipophilicity, logD of the compound in octanol and phosphate buffer at pH 7.4 incubated for 4 hrs under shaking condition by liquid chromatography tandem mass spectrometry; format: physicochemical
[4] = Efflux ratio of apparent permeability across […] in MDCK-MDR1 incubated for 120 mins by LC-MS analysis; format: ADME, cell-based, Canis lupus familiaris; conditions: dog, mdck-mdr1, 2 h

Sequence of Protein arginine N-methyltransferase 5 (O14744 whole entry): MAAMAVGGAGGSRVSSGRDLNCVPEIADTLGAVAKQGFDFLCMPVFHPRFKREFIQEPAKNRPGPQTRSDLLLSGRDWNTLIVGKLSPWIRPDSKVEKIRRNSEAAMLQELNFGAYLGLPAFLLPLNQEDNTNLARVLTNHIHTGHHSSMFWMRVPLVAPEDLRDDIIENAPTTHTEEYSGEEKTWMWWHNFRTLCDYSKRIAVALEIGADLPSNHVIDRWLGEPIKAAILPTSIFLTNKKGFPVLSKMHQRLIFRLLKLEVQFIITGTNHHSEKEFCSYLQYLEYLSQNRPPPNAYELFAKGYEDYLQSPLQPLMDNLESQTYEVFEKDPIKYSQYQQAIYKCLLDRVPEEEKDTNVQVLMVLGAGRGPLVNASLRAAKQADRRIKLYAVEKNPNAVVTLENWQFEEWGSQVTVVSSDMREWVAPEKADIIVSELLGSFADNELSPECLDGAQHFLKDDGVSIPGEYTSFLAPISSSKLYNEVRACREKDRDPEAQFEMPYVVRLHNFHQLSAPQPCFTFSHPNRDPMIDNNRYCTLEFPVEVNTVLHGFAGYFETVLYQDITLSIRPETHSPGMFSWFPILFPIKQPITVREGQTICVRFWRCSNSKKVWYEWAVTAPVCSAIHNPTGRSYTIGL

Structure (SMILES) | microsomal CLint [1] [µL/min/mg] | IC50 [2] [nM] | logD at 4 h [3] | Ratio [4]
Cc1cc2ncc(Cn3c(C(=O)N(C)c4ccccc4)cn(C)c3=O)cc2nc1N | 36 | 29 | 1.1 | –
Cc1cc2ccc(Cn3c(C(=O)N(C)c4ccccc4)cn(C)c3=O)cc2nc1N | 395 | 2 | 1.6 | 35
Cc1cc2ccc(Cn3c(C(=O)N(C)c4ccccc4)nn(C)c3=O)cc2nc1N | 97 | 2 | 1.9 | 6
Cc1cc2ccc(Cn3c(C(=O)N(C)c4ccccc4)cccc3=O)cc2nc1N | 422 | 17 | 2 | 22
Cc1cc2ccc(Cn3nncc3C(=O)N(C)c3ccccc3)cc2nc1N | 547 | 50 | 2.1 | 3

Results, then the molecule that gave them:

microsomal CLint [1] [µL/min/mg] | IC50 [2] [nM] | logD at 4 h [3] | Ratio [4] | Structure (SMILES)
240 | 1 | 1.8 | 2 | Cc1cc2ccc(Cn3c(C(=O)N(C)c4ccccc4)coc3=O)cc2nc1N
> 700 | 49 | 2.9 | 1 | Cc1cc2ccc(Cn3c(C(=O)N(C)c4ccccc4)noc3=O)cc2nc1N
< 25 | 21 | 0.9 | 17 | Cc1cc2ccc(Cn3c(C(=O)N(C)c4ccccn4)nn(C)c3=O)cc2nc1N
89 | 14 | 1.8 | 1 | Cc1cc2ccc(Cn3nccc3C(=O)N(C)c3ncccc3F)cc2nc1N
28 | 9 | 0.8 | 14 | Cc1cc2ccc(Cn3c(C(=O)N(C)c4ccccn4)cn(C)c3=O)cc2nc1N
299 | 39 | 2.1 | 8 | Cc1cc2ccc(Cn3c(C(=O)N(C)c4ccccc4)nccc3=O)cc2nc1N
